Assay results reported in PubChem BioAssay AID2060891 (Molecular Pharmacology Branch, DTP, NCI, 2025).
Values belong to the compound of their own block, whether it stands above or below them.

Test system: K98450-129-R-PDC complex spheroid growth, percent test/control
Assay: Anticancer human tumor K98450-129-R-PDC patient-derived colon adenocarcinoma cell line growth inhibition [RAS]
Conditions: for IC50: curve of first compound; for viability, T/C: stronger effect = lower value
Outline: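 Agents were tested in combination matrices in half-log decrements from a top concentration at or near clinical Cmax (10 microM if undetermined). Targets were multi-cell spheroids of tumour lines plus HUVEC and MSC stromal cells.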

[1] = second compound 0.000949 µM, first compound 0.00316 µM
[2] = second compound 0.000949 µM, first compound 0.01 µM
[3] = second compound 0.000949 µM, first compound 0.0316 µM
[4] = second compound 0.000949 µM, first compound 0.1 µM
[5] = second compound 0.000949 µM, first compound 0.316 µM
[6] = second compound 0.000949 µM, first compound 1 µM
[7] = second compound 0.003 µM, first compound 0.00316 µM
[8] = second compound 0.003 µM, first compound 0.01 µM
[9] = second compound 0.003 µM, first compound 0.0316 µM
[10] = second compound 0.003 µM, first compound 0.1 µM
[11] = second compound 0.003 µM, first compound 0.316 µM
[12] = second compound 0.003 µM, first compound 1 µM
[13] = second compound 0.00949 µM, first compound 0.00316 µM
[14] = second compound 0.00949 µM, first compound 0.01 µM
[15] = second compound 0.00949 µM, first compound 0.0316 µM
[16] = second compound 0.00949 µM, first compound 0.1 µM
[17] = second compound 0.00949 µM, first compound 0.316 µM
[18] = second compound 0.00949 µM, first compound 1 µM
[19] = second compound 0.03 µM, first compound 0.00316 µM
[20] = second compound 0.03 µM, first compound 0.01 µM
[21] = second compound 0.03 µM, first compound 0.0316 µM
[22] = second compound 0.03 µM, first compound 0.1 µM
[23] = second compound 0.03 µM, first compound 0.316 µM
[24] = second compound 0.03 µM, first compound 1 µM
[25] = second compound 0.0949 µM, first compound 0.00316 µM
[26] = second compound 0.0949 µM, first compound 0.01 µM
[27] = second compound 0.0949 µM, first compound 0.0316 µM
[28] = second compound 0.0949 µM, first compound 0.1 µM
[29] = second compound 0.0949 µM, first compound 0.316 µM
[30] = second compound 0.0949 µM, first compound 1 µM
[31] = second compound 0.3 µM, first compound 0.00316 µM
[32] = second compound 0.3 µM, first compound 0.01 µM
[33] = second compound 0.3 µM, first compound 0.0316 µM
[34] = second compound 0.3 µM, first compound 0.1 µM
[35] = second compound 0.3 µM, first compound 0.316 µM
[36] = second compound 0.3 µM, first compound 1 µM
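Also: spheroids exposed to agents for seven days before the viability readout.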
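For viability, T/C in this document: luminescence used as a proxy for viable cell amount.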

IC50 (second compound 0.000949 µM): 90.6 nM
IC50 (second compound 0.003 µM): 52.7 nM
IC50 (second compound 0.00949 µM): 30.4 nM
IC50 (second compound 0.03 µM): < 3.16 nM
IC50 (second compound 0.0949 µM): < 3.16 nM
IC50 (second compound 0.3 µM): < 3.16 nM
SMILES: C=CC(=O)N1CCN(c2nc(OCC3CCCN3C)nc3c(F)c(-c4nc(N)cc(C)c4C(F)(F)F)c(Cl)cc23)C(C)C1 (stereo not drawn) + CCn1c(-c2cc(N3CCN(C)CC3)cnc2C(C)OC)c2c3cc(ccc31)-c1csc(n1)CC(NC(=O)C1CC1C)C(=O)N1CCCC(N1)C(=O)OCC(C)(C)C2
viability, T/C [1]: 88%
viability, T/C [2]: 71.2%
viability, T/C [3]: 69%
viability, T/C [4]: 44.4%
viability, T/C [5]: 40.1%
viability, T/C [6]: 34.5%
viability, T/C [7]: 88%
viability, T/C [8]: 68.5%
viability, T/C [9]: 55.6%
viability, T/C [10]: 41.8%
viability, T/C [11]: 42.1%
viability, T/C [12]: 34.8%
viability, T/C [13]: 72.7%
viability, T/C [14]: 61.7%
viability, T/C [15]: 49.8%
viability, T/C [16]: 37.2%
viability, T/C [17]: 29.1%
viability, T/C [18]: 20%
viability, T/C [19]: 44.8%
viability, T/C [20]: 46.3%
viability, T/C [21]: 37.3%
viability, T/C [22]: 19.8%
viability, T/C [23]: 20.9%
viability, T/C [24]: 18.1%
viability, T/C [25]: 16.1%
viability, T/C [26]: 16.9%
viability, T/C [27]: 14.4%
viability, T/C [28]: 14.7%
viability, T/C [29]: 14.3%
viability, T/C [30]: 12%
viability, T/C [31]: 10.9%
viability, T/C [32]: 10.5%
viability, T/C [33]: 11.6%
viability, T/C [34]: 10.3%
viability, T/C [35]: 11.7%
viability, T/C [36]: 12.4%

IC50 (second compound 0.000949 µM): > 300 nM
IC50 (second compound 0.003 µM): > 300 nM
IC50 (second compound 0.00949 µM): > 300 nM
IC50 (second compound 0.03 µM): > 300 nM
IC50 (second compound 0.0949 µM): < 0.949 nM
IC50 (second compound 0.3 µM): < 0.949 nM
SMILES: CC1(C)CCC(Nc2ncc(C(F)(F)F)c(-c3c[nH]c4c(P(C)(C)=O)c(C#N)ccc34)n2)CN1 (stereo not drawn) + CCn1c(-c2cc(N3CCN(C)CC3)cnc2C(C)OC)c2c3cc(ccc31)-c1csc(n1)CC(NC(=O)C1CC1C)C(=O)N1CCCC(N1)C(=O)OCC(C)(C)C2
viability, T/C (second compound 0.000949 µM, first compound 0.000949 µM): 100%
viability, T/C (second compound 0.000949 µM, first compound 0.003 µM): 82.2%
viability, T/C (second compound 0.000949 µM, first compound 0.00949 µM): 96.2%
viability, T/C (second compound 0.000949 µM, first compound 0.03 µM): 89.7%
viability, T/C (second compound 0.000949 µM, first compound 0.0949 µM): 80.8%
viability, T/C (second compound 0.000949 µM, first compound 0.3 µM): 79.5%
viability, T/C (second compound 0.003 µM, first compound 0.000949 µM): 81.2%
viability, T/C (second compound 0.003 µM, first compound 0.003 µM): 83.2%
viability, T/C (second compound 0.003 µM, first compound 0.00949 µM): 85.6%
viability, T/C (second compound 0.003 µM, first compound 0.03 µM): 94.6%
viability, T/C (second compound 0.003 µM, first compound 0.0949 µM): 77.2%
viability, T/C (second compound 0.003 µM, first compound 0.3 µM): 69.4%
viability, T/C (second compound 0.00949 µM, first compound 0.000949 µM): 75.2%
viability, T/C (second compound 0.00949 µM, first compound 0.003 µM): 77.1%
viability, T/C (second compound 0.00949 µM, first compound 0.00949 µM): 76.7%
viability, T/C (second compound 0.00949 µM, first compound 0.03 µM): 77.8%
viability, T/C (second compound 0.00949 µM, first compound 0.0949 µM): 81.7%
viability, T/C (second compound 0.00949 µM, first compound 0.3 µM): 60.2%
viability, T/C (second compound 0.03 µM, first compound 0.000949 µM): 54.1%
viability, T/C (second compound 0.03 µM, first compound 0.003 µM): 49.5%
viability, T/C (second compound 0.03 µM, first compound 0.00949 µM): 51.2%
viability, T/C (second compound 0.03 µM, first compound 0.03 µM): 61.7%
viability, T/C (second compound 0.03 µM, first compound 0.0949 µM): 63.1%
viability, T/C (second compound 0.03 µM, first compound 0.3 µM): 43.8%
viability, T/C (second compound 0.0949 µM, first compound 0.000949 µM): 24.6%
viability, T/C (second compound 0.0949 µM, first compound 0.003 µM): 26.8%
viability, T/C (second compound 0.0949 µM, first compound 0.00949 µM): 30.6%
viability, T/C (second compound 0.0949 µM, first compound 0.03 µM): 35.1%
viability, T/C (second compound 0.0949 µM, first compound 0.0949 µM): 40.3%
viability, T/C (second compound 0.0949 µM, first compound 0.3 µM): 37%
viability, T/C (second compound 0.3 µM, first compound 0.000949 µM): 12.7%
viability, T/C (second compound 0.3 µM, first compound 0.003 µM): 14.7%
viability, T/C (second compound 0.3 µM, first compound 0.00949 µM): 17.9%
viability, T/C (second compound 0.3 µM, first compound 0.03 µM): 23.5%
viability, T/C (second compound 0.3 µM, first compound 0.0949 µM): 28.4%
viability, T/C (second compound 0.3 µM, first compound 0.3 µM): 25.2%

IC50 (second compound 0.000949 µM): 85 nM
IC50 (second compound 0.003 µM): 21.5 nM
IC50 (second compound 0.00949 µM): < 3.16 nM
IC50 (second compound 0.03 µM): < 3.16 nM
IC50 (second compound 0.0949 µM): < 3.16 nM
IC50 (second compound 0.3 µM): < 3.16 nM
SMILES: C=CC(=O)Nc1cc(Nc2nccc(-c3cn(C)c4ccccc34)n2)c(OC)cc1N(C)CCN(C)C + CCn1c(-c2cccnc2C(C)OC)c2c3cc(ccc31)N1CCOC(CC(NC(=O)C(C(C)C)N(C)C(=O)C3(F)CCN(C(=O)C#CC(C)(C)N(C)C)CC3)C(=O)N3CCCC(N3)C(=O)OCC(C)(C)C2)C1
viability, T/C [1]: 76.9%
viability, T/C [2]: 63.9%
viability, T/C [3]: 77.4%
viability, T/C [4]: 44.5%
viability, T/C [5]: 20.1%
viability, T/C [6]: 8.96%
viability, T/C [7]: 59.5%
viability, T/C [8]: 51.5%
viability, T/C [9]: 48.8%
viability, T/C [10]: 24.4%
viability, T/C [11]: 14.3%
viability, T/C [12]: 10.2%
viability, T/C [13]: 39.2%
viability, T/C [14]: 41.6%
viability, T/C [15]: 28.4%
viability, T/C [16]: 20.9%
viability, T/C [17]: 11.1%
viability, T/C [18]: 8.95%
viability, T/C [19]: 37%
viability, T/C [20]: 30.9%
viability, T/C [21]: 28.4%
viability, T/C [22]: 18.1%
viability, T/C [23]: 9.5%
viability, T/C [24]: 9.54%
viability, T/C [25]: 34%
viability, T/C [26]: 32.4%
viability, T/C [27]: 26.2%
viability, T/C [28]: 16.2%
viability, T/C [29]: 11%
viability, T/C [30]: 9%
viability, T/C [31]: 34%
viability, T/C [32]: 28.9%
viability, T/C [33]: 25.3%
viability, T/C [34]: 16.5%
viability, T/C [35]: 10.1%
viability, T/C [36]: 9.52%

IC50 (second compound 0.000949 µM): 64.7 nM
IC50 (second compound 0.003 µM): 9.15 nM
IC50 (second compound 0.00949 µM): < 3.16 nM
IC50 (second compound 0.03 µM): < 3.16 nM
IC50 (second compound 0.0949 µM): < 3.16 nM
IC50 (second compound 0.3 µM): < 3.16 nM
SMILES: O=C(c1ccc(F)c(F)c1Nc1ccc(I)cc1F)N1CC(O)([C@@H]2CCCCN2)C1 + CCn1c(-c2cccnc2C(C)OC)c2c3cc(ccc31)N1CCOC(CC(NC(=O)C(C(C)C)N(C)C(=O)C3(F)CCN(C(=O)C#CC(C)(C)N(C)C)CC3)C(=O)N3CCCC(N3)C(=O)OCC(C)(C)C2)C1
viability, T/C [1]: 76.5%
viability, T/C [2]: 53.9%
viability, T/C [3]: 63.3%
viability, T/C [4]: 42.2%
viability, T/C [5]: 6.87%
viability, T/C [6]: 2.59%
viability, T/C [7]: 57.1%
viability, T/C [8]: 44.8%
viability, T/C [9]: 40.7%
viability, T/C [10]: 18%
viability, T/C [11]: 6.5%
viability, T/C [12]: 2.42%
viability, T/C [13]: 41.7%
viability, T/C [14]: 32%
viability, T/C [15]: 22%
viability, T/C [16]: 14.2%
viability, T/C [17]: 5.98%
viability, T/C [18]: 2.66%
viability, T/C [19]: 27.4%
viability, T/C [20]: 33.5%
viability, T/C [21]: 25.5%
viability, T/C [22]: 11%
viability, T/C [23]: 6.18%
viability, T/C [24]: 2.44%
viability, T/C [25]: 28.3%
viability, T/C [26]: 24.3%
viability, T/C [27]: 19.7%
viability, T/C [28]: 10.6%
viability, T/C [29]: 5.39%
viability, T/C [30]: 2.34%
viability, T/C [31]: 28.5%
viability, T/C [32]: 26.5%
viability, T/C [33]: 21.9%
viability, T/C [34]: 10.1%
viability, T/C [35]: 4.51%
viability, T/C [36]: 2.36%
